Where a name gives a salt, the structure may show the parent alone. Read-outs that look alike come from different tables or passages of the source.
Experiments:
Mouse CD4+ cells = test: Th17 cell differentiation assay (IL-17 ELISA); format: cell-based
Experimental: Mouse CD4+cells were purified using the CD4+ T Cell Isolation II Kit according to manufacturer's instructions (Miltenyi Biotec). 96 well plates were pre-coated with anti-mCD3 antibody. Un-coated wells were used as controls. CD4+ Cells were resuspended in RPMI 1640 complete medium and were added to the 96-well plates. Cytokine cocktail and the compound were then added to the wells. Antibodies and cytokines (all from R&D Systems) used in the assay were selected from the following: anti-mCD3; anti-mCD28; anti-mIFNγ; anti-mIL4; mIL-6; mIL-23; mIL-1β; hTGF-β1. The culture was incubated at 37° C. for 3 days and supernatants were collected for ELISA. The IL-17 ELISAs were performed according to manufacturer's instructions (R&D Systems). The results were analyzed using Prism software with non-linear regression to determine pIC50.

[1] = target: T1, Human RORγ Ligand Binding Domain (RORγ-LBD) (Homo sapiens, UniProt P51449); test: Dual Fluorescence Energy Transfer (FRET) assay, RORγ-LBD / SRC1(2) co-activator peptide interaction; format: biochemical; settings: mean of multiple test results if tested more than once; read-out: pIC50 in the dual FRET assay (converted)
T1 construct: made in house; host or cells: E. coli BL21(DE3), modified pET21a
T1 sequence (P51449 263-518): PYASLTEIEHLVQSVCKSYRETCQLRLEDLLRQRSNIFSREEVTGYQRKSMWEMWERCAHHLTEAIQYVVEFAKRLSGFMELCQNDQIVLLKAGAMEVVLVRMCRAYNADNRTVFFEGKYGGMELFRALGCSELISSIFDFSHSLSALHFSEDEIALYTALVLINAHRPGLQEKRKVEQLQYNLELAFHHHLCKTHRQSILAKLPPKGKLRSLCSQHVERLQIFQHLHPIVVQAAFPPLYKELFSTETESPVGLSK
Source text: This assay is based on the knowledge that nuclear receptors interact with cofactors (transcription factors) in a ligand dependent manner. RORγ is a typical nuclear receptor in that it has an AF2 domain in the ligand binding domain (LBD) which interacts with co-activators.
The assay measures ligand-mediated interaction of the co-activator peptide with the purified bacterial-expressed RORγ ligand binding domain (RORγ-LBD) to indirectly assess ligand binding. RORγ has a basal level of interaction with the co-activator SRC1(2) in the absence of ligand, thus it is possible to find ligands that inhibit or enhance the RORγ/SRC1(2) interaction.
Human RORγ Ligand Binding Domain (RORγ-LBD) was expressed in E.coli strain BL21(DE3) as an amino-terminal polyhistidine tagged fusion protein. DNA encoding this recombinant protein was sub-cloned into a modified pET21a expression vector (Novagen).
Approximately 50 g E. coli cell pellet was resuspended in 300 mL of lysis buffer (30 mM imidazole pH 7.0 and 150 mM NaCl). Cells were lysed by sonication and cell debris was removed by centrifugation for 30 minutes at 20,000 g at 4° C. […] The clarified lysate was loaded onto a column (XK-26) packed with ProBond Nickel Chelating resin (Invitrogen), pre-equilibrated with 30 mM imidazole pH 7.0 and 150 mM NaCl. After washing to baseline absorbance with the equilibration buffer, the column was developed with a gradient from 30 to 500 mM imidazole pH 7.0. Column fractions containing the RORγ-LBD protein were pooled and concentrated to a volume of 5 mls. The concentrated protein was loaded onto a Superdex 200 column pre-equilibrated with 20 mM Tris-CI pH 7.2 and 200 mM NaCl. The fractions containing the desired RORγ-LBD protein were pooled together.
Purified RORγ-LBD was buffer exchanged by exhaustive dialysis [3 changes of at least 20 volumes (>8000x)] against PBS [100mM NaPhosphate, pH 8 and 150mM NaC1]. […] The modified protein was distributed into aliquots, frozen on dry ice and stored at −80° C. The biotinylated RORγ-LBD was subjected to mass spectrometric analysis to reveal the extent of modification by the biotinylation reagent.
An appropriate amount of Europium labeled Streptavidin was then added to the biotinylated SRC1(2) solution in a tube to give a final concentration of 10 nM. The tube was inverted gently and incubated for 15 minutes at room temperature. Twenty-fold excess biotin from the 10 mM stock solution was added and the tube was inverted gently and incubated for 10 minutes at room temperature.
Preparation of APC labeled RORγ-LBD: biotinylated RORγ-LBD solution was prepared by adding an appropriate amount of biotinylated RORγ-LBD from the stock solution to a buffer containing 10 mM of freshly added DTT from solid to give a final concentration of 40 nM. An appropriate amount of APC labeled Streptavidin was then added to the biotinylated RORγ-LBD solution in a tube to give a final concentration of 20 nM. The tube was inverted gently and incubated for 15 minutes at room temperature. Twenty-fold excess biotin from the 10 mM stock solution was then added and the tube was inverted gently and incubated for 10 minutes at room temperature.
The reaction mixtures were incubated for 5 minutes. […] The plates were incubated for lhr and then read on ViewLux in Lance mode for EU/APC.

[2] = system: Experimental Autoimmune Encephalomyelitis (EAE); test: EAE studies (Experimental Autoimmune Encephalomyelitis); format: in vivo, mice of the C57BL/6 (B6) strain; settings: orally twice a day from day 0; for EAE onset and clinical score: effect starting at 3, 10 or 30 mg/kg; for EAE onset: 30 mg/kg
[3] = In vitro percutaneous study (Franz diffusion cells, aqueous cream); format: in vitro ADME, human; settings: 1.0% w/w in aqueous cream pH=6, 5 mg/cm^2, human skin from three donors
Source text: The in vitro percutaneous study is aimed to predict the level of percutaneous penetration obtained for a compound in a topical formulation for psoriasis. This assay coupled with the intrinsic potency of the compound are used to predict the likelihood of success of a compound to engage the target. The higher the ratio of the percutaneous penetration to the intrinsic potency, the higher the ratio of local skin concentration to the intrinsic potency and therefore the higher the chance of a compound to engage the target in a topical formulation.
The compounds were manufactured in a modified aqueous cream at pH=6.
The study was conducted with dermatomed abdominal human skin sourced from three skin donors using 2 cm2 Franz diffusion cells. The receiving fluid consisted of Bovine serum albumin (4% w/v) in 0.1% w/v sodium azide in Phospate Buffer Saline and was heated at 37° C. in order to obtain 32° C. at the skin surface. The cream formulation was applied on the donor side at a 10 mg dose, i.e. 5 mg/cm^2. The samples taken at the following time points: t=0, 3, 6, 9 and 24 h. The receiver samples were then assayed using a method based upon protein precipitation with acetonitrile followed by LC/MS/MS analysis. The percutaneous flux (in ng/cm^2/hr) was determined using the individual API (in a multiple composition) that had permeated into the receiver compartment over 24 hrs per cm^2.

[4] = 72 h, mean pIC50, IL-17 ELISA, 3 days culture, detection limit of the assay 5, read-out: pIC50 in the Th17 cell differentiation assay (converted)

For `Cc1ccc(C(=O)Nc2cc(Cl)cc(CN3CCN(C(=O)[C@H]4C[C@@H](C)C4)[C@@H](C)C3)c2C)cn1` [Example 189, N-(5-chloro-2-methyl-3-(((S)-3-methyl-4-((cis)-3-methylcyclobutanecarbonyl)piperazin-1-yl)methyl)phenyl)-6-methylnicotinamide], the IC50 (Mouse CD4+ cells; [4]) was about 5.13 nM and the IC50 [1] was about 50.1 nM.
For `Cc1ncc(C(=O)Nc2cc(Cl)cc(CN3CCN(C(=O)C4CCCC4)[C@@H](C)C3)c2C)cn1` [Example 192, (S)-N-(5-chloro-3-((4-(cyclopentanecarbonyl)-3-methylpiperazin-1-yl)methyl)-2-methylphenyl)-2-methylpyrimidine-5-carboxamide], the IC50 (Mouse CD4+ cells; [4]) was about 7.94 nM and the “EAE onset and clinical score” value [2] was “delay EAE onset and lower clinical score”.
With `Cc1ccc(C(=O)Nc2cc(F)cc(CN3CCN(C(=O)[C@H]4C[C@H](C)C4)[C@@H](C)C3)c2C)cn1` [Example 186, N-(5-fluoro-2-methyl-3-(((S)-3-methyl-4-((trans)-3-methylcyclobutanecarbonyl)piperazin-1-yl)methyl)phenyl)-6-methylnicotinamide] the IC50 (Mouse CD4+ cells; [4]) was about 37.2 nM and the IC50 [1] was about 79.4 nM.
For `Cc1ccc(C(=O)Nc2cc(Cl)cc(CN3CCN(C(=O)[C@H]4C[C@H](C)C4)[C@@H](C)C3)c2C)cn1` [Example 188, N-(5-chloro-2-methyl-3-(((S)-3-methyl-4-((trans)-3-methylcyclobutanecarbonyl)piperazin-1-yl)methyl)phenyl)-6-methylnicotinamide], the IC50 (Mouse CD4+ cells; [4]) was about 8.71 nM and the IC50 [1] was about 63.1 nM.
In the case of `Cc1ccc(C(=O)Nc2cc(F)cc(CN3CCN(C(=O)C4CC(C)(C)C4)[C@@H](C)C3)c2C)cn1` [Example 164, (S)-N-(3-((4-(3,3-dimethylcyclobutanecarbonyl)-3-methylpiperazin-1-yl)methyl)-5-fluoro-2-methylphenyl)-6-methylnicotinamide], the “Flux over 24 hrs” value [3] is reported as 3.12 ng/cm^2/hr, the IC50 (Mouse CD4+ cells; table with percutaneous study, read-out: Th17 cell differentiation assay IC50) is reported as 9.3 ng/mL and the IC50 (Mouse CD4+ cells; table with percutaneous study, read-out: Th17 cell differentiation assay pIC50 (converted)) is reported as 20 nM.
With `Cc1ccc(C(=O)Nc2cc(Cl)cc(CN3CCN(C(=O)C4CCCC4)[C@@H](C)C3)c2C)cn1` [Example 62, (S)-N-(5-chloro-3-((4-(cyclopentanecarbonyl)-3-methylpiperazin-1-yl)methyl)-2-methylphenyl)-6-methylnicotinamide] the EAE onset [2] was “delay EAE onset”.
For `Cc1ccc(C(=O)Nc2cc(Cl)cc(CN3CCN(C(=O)CC4CC4)[C@@H](C)C3)c2C)cn1` [Example 184, (S)-N-(5-chloro-3-((4-(2-cyclopropylacetyl)-3-methylpiperazin-1-yl)methyl)-2-methylphenyl)-6-methylnicotinamide], the IC50 (Mouse CD4+ cells; [4]) was about 83.2 nM, the “EAE onset and clinical score” value [2] was “delay EAE onset and lower clinical score” and the IC50 [1] was about 200 nM.
In the case of `Cc1c(CN2CCN(C(=O)C3CC(F)(F)C3)[C@@H](C)C2)cc(F)cc1NC(=O)c1cccc(C#N)c1` [Example 175, (S)-3-cyano-N-(3-((4-(3,3-difluorocyclobutanecarbonyl)-3-methylpiperazin-1-yl)methyl)-5-fluoro-2-methylphenyl)benzamide, trifluoroacetic acid salt], the “EAE onset and clinical score” value [2] is reported as “delay EAE onset and lower clinical score”.
With `Cc1cc(C(=O)Nc2cc(Cl)cc(CN3CCN(C(=O)C4CCCC4)[C@@H](C)C3)c2C)ccn1` [Example 187, (S)-N-(5-chloro-3-((4-(cyclopentanecarbonyl)-3-methylpiperazin-1-yl)methyl)-2-methylphenyl)-2-methylisonicotinamide] the IC50 (Mouse CD4+ cells; [4]) was about 3.16 nM and the IC50 [1] was about 126 nM.
With `Cc1ncc(C(=O)Nc2cc(Cl)cc(CN3CCN(C(=O)[C@H]4C[C@H](C)C4)[C@@H](C)C3)c2C)cn1` [Example 191, N-(5-chloro-2-methyl-3-(((S)-3-methyl-4-((trans)-3-methylcyclobutanecarbonyl)piperazin-1-yl)methyl)phenyl)-2-methylpyrimidine-5-carboxamide, trifluoroacetic acid salt] the IC50 (Mouse CD4+ cells; [4]) was about 26.3 nM, the EAE onset [2] was “delay EAE onset” and the IC50 [1] was about 251 nM.
With `Cc1ncc(C(=O)Nc2cc(Cl)cc(CN3CCN(C(=O)[C@H]4C[C@@H](C)C4)[C@@H](C)C3)c2C)cn1` [Example 190, N-(5-chloro-2-methyl-3-(((S)-3-methyl-4-((cis)-3-methylcyclobutanecarbonyl)piperazin-1-yl)methyl)phenyl)-2-methylpyrimidine-5-carboxamide, trifluoroacetic acid salt] the IC50 (Mouse CD4+ cells; [4]) was about 12.9 nM, the EAE onset [2] was “delay EAE onset” and the IC50 [1] was about 158 nM.
Molecule `Cc1c(NC(=O)c2ccc[nH]c2=O)ccc(F)c1CN1CCN(C(=O)C2CCCC2)[C@@H](C)C1` [Example 129, (S)-N-(3-((4-(cyclopentanecarbonyl)-3-methylpiperazin-1-yl)methyl)-4-fluoro-2-methylphenyl)-2-oxo-1,2-dihydropyridine-3-carboxamide, trifluoroacetic acid salt] has an IC50 (Mouse CD4+ cells; [4]) of over 10000 nM.
With `Cc1ncc(C(=O)Nc2cc(F)cc(CN3CCN(C(=O)C4CCCC4)[C@@H](C)C3)c2C)cn1` [Example 20, (S)-N-(3-((4-(cyclopentanecarbonyl)-3-methylpiperazin-1-yl)methyl)-5-fluoro-2-methylphenyl)-2-methylpyrimidine-5-carboxamide] the IC50 (Mouse CD4+ cells; [4]) was about 31.6 nM, the “EAE onset and clinical score” value [2] was “delay EAE onset and lower clinical score” and the IC50 [1] was about 100 nM.
In the case of `Cc1ccc(C(=O)Nc2cc(F)cc(CN3CCN(C(=O)[C@H]4C[C@@H](C)C4)[C@@H](C)C3)c2C)cn1` [Example 185, N-(5-fluoro-2-methyl-3-(((S)-3-methyl-4-((cis)-3-methylcyclobutanecarbonyl)piperazin-1-yl)methyl)phenyl)-6-methylnicotinamide], the IC50 (Mouse CD4+ cells; [4]) is reported as about 20.9 nM and the IC50 [1] is reported as about 79.4 nM.

— US10005731B2, “Modulators of the retinoid-related orphan receptor gamma (ROR-gamma) for use in the treatment of autoimmune and inflammatory diseases” (Glaxo Group Limited, priority 2012, dated 2018)
